Data taken from patent US10130598B2, “Methods and compositions for administration of 3-halopyruvate and related compounds for the treatment of cancer” (The Johns Hopkins University, priority 2008, dated 2018).

Assay: ATP luminescent assay of 3-BrPA dissolved in alternative buffers
Format: cell-based
Experimental: Cytotoxicity of 3-BrPA was evaluated by the IC50 values, representing the drug concentration which depletes ATP by 50% compared to non-treated control. On day 1, cells were seeded into 96-well plates in a volume of 100 μl per well. On day 2, the medium of all wells was removed and an aliquot of 100 μl of media having serial dilutions of 3-BrPA in PBS, NaHCO3, NaOH, KOH and KHCO3 was added to the appropriate well. After 24 h of drug exposure cytotoxic effects of 3-BrPA were monitored by cellular ATP level using CellTiter-Glo™ assay reagents from Promega Corp (Madison, Wis.). Briefly, 100 μl assay reagent was added to each well and mixed at room temperature for 2 min to develop luminescent signal. The luminescence intensity (cps) from each sample was determined with a spectrometer (Model Victor III, Perkin Elmer, Mass.). Relative luminescence was calculated in proportion to the numbers of living cells per sample well. The results are expressed as the mean of three independent experiments. The intracellular ATP contents were calculated and normalized by equal cell number and expressed as the percentage of the control cells. The IC50 values were estimated graphically from dose-response plots.
Based on the results described in Example 1, it was concluded that 10 mg of 3-BrPA is the maximum tolerated dose (MTD) if dissolved in 2.75 ml of PBS. […]

## O=C(O)C(=O)CBr [3-BrPA, 3-bromopyruvate]
Dissolved in NaHCO3
  IC50 value compared to 3-BrPA dissolved in PBS: did not show a significantly different in IC50 value
Other buffers tested (NaOH, KOH and KHCO3)
  IC50 value compared to 3-BrPA dissolved in PBS: significantly higher IC50 values
